The target in this test is T1, human GIP receptor (Homo sapiens, UniProt P48546).
T1 construct: expressed in transfected cells; host or cells: Chinese hamster lung (CHL) fibroblasts, stably transfected
T1 sequence (P48546 22-466): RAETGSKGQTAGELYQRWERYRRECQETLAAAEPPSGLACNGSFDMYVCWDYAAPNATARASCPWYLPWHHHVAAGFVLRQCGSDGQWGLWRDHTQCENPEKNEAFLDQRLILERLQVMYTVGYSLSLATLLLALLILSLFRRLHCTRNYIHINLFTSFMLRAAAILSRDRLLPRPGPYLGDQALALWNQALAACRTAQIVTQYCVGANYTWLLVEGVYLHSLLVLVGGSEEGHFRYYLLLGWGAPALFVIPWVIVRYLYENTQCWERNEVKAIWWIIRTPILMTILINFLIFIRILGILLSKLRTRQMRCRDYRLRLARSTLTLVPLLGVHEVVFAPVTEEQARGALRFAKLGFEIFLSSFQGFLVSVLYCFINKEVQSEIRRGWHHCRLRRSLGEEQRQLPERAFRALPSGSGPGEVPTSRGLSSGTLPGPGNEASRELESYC
Nature of the test: GIP-stimulated cyclic AMP generation in GIP receptor transfected CHL cells (antagonism). The format is cell-based. To be noted: in the presence of native GIP (10^-7 M). As for the experimental part:
Tissue culture. Chinese hamster lung (CHL) fibroblast cells stably transfected with the human GIP receptor were cultured in DMEM tissue culture medium containing 10% (v/v) foetal bovine serum, 1% (v/v) antibiotics (100 U/ml penicillin, 0.1 mg/ml streptomycin). BRIN-BD11 cells were cultured using RPMI-1640 tissue culture medium containing 10% (v/v) foetal bovine serum, 1% (v/v) antibiotics (100 U/ml penicillin, 0.1 mg/ml streptomycin). Cells were maintained in sterile tissue culture flasks (Corning Glass Works, Sunderland, UK) at 37° C. in an atmosphere of 5% CO2 and 95% air using an LEEC incubator (Laboratory Technical Engineering, Nottingham, UK).
Acute studies of cyclic AMP generation. GIP receptor transfected CHL cells were seeded into 12-well plates (Nunc, Roskilde, Denmark) at a density of 1.0×10^5 cells per well. The cells were then allowed to grow for 48 hours before being loaded with tritiated adenine (2 μCi; TRK311, Amersham, Buckinghamshire, UK) and incubated at 37° C. for 6 hours in 1 ml DMEM, supplemented with 0.5% (w/v) […]. The cells were then washed twice with HBS buffer (130 mM NaCl, 20 mM HEPES, 0.9 mM NaHPO4, 0.8 mM MgSO4, 5.4 mM KCl, 1.8 mM CaCl2, 25 mM glucose, 25 μM phenol red, pH 7.4). […]

From patent publication US7875587B2, “Peptide analogues of GIP for treatment of diabetes, insulin resistance and obesity” (UUTECH Limited, priority 2004, dated 2011) come the findings set out here.

No end group written: not given here.

As for “YAPGTFISDYSIAMDKIHQQDFVNWLLAQKGKKNDWKHNITQ [(Pro^3)GIP]”, the “inhibition of GIP-stimulated cyclic AMP production” value is given as “inhibited in dose-dependent fashion”.
